Patent publication US20230059136A1, “THE COMPOUNDS AND COMPOSITIONS FOR TREATING CONDITIONS ASSOCIATED WITH NLRP ACTIVITY” (Novartis AG, priority 2018, published 2023)

test system: IL-1β production in PMA-differentiated THP-1 cells; experiment: IL-1β production in PMA-differentiated THP-1 cells stimulated with gramicidin (hTHP-1 assay containing 2% fetal bovine serum); assay type: cell-based, human; conditions: Homo sapiens, THP-1, Table B1; 2% fetal bovine serum; cells printed as numeric bound; read-out: hTHP-1 IC50 (Average IC50 of compounds in hTHP-1 assay)
Method in brief: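 THP-1 cells were differentiated with PMA 20 ng/ml for 16-18 h, then plated at 50,000 cells/well in RPMI with 2% FBS. They were preincubated 1 h with compound (100–0.0017 μM final, 0.37% DMSO), then stimulated with gramicidin 5 μM for 2 h. Supernatant IL-1β was measured by HTRF.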

IC50	SMILES
> 30 µM	CC(C)(O)c1ncc(S(N)(=O)=NC(=O)Cc2c3c(cc4c2CC4)CCC3)s1 [Example 224, (S)- and (R)—N-(amino(2-(2-hydroxypropan-2-yl)thiazol-5-yl)(oxo)-λ^6-sulfaneylidene)-2-(2,4,5,6-tetrahydro-1H-cyclobuta[f]inden-3-yl)acetamide]

same assay, conditions: Homo sapiens, THP-1, Table B1; 2% fetal bovine serum; class symbols; read-out: hTHP-1 IC50 (Average IC50 of compounds in hTHP-1 assay)

IC50	SMILES
0.04 to 0.2 µM	COCc1cc(C(C)C)c(CC(=O)N=S(N)(=O)c2ncc(C(C)(C)O)s2)c(C(C)C)c1 (centres unmarked) [Example 111, N-(amino(5-(2-hydroxypropan-2-yl)thiazol-2-yl)(oxo)-λ^6-sulfaneylidene)-2-(2,6-diisopropyl-4-(methoxymethyl)phenyl) acetamide]
0.04 to 0.2 µM	CC(C)c1cc(-c2ccc3c(c2)OC(F)(F)O3)cc(C(C)C)c1CC(=O)N=S(N)(=O)c1ncc(C(C)(C)O)s1 (centres unmarked) [Example 117, N-(amino(5-(2-hydroxypropan-2-yl)thiazol-2-yl)(oxo)-λ^6-sulfaneylidene)-2-(4-(2,2-difluorobenzo[d][1,3]dioxol-5-yl)-2,6-diisopropylphenyl) acetamide]
0.2 to 1 µM	CC(C)c1ccc(C#N)c(C(C)C)c1CC(=O)N=S(N)(=O)c1nc(C(C)(C)O)cs1 (centres unmarked) [Example 120, N-(amino(4-(2-hydroxypropan-2-yl)thiazol-2-yl)(oxo)-λ^6-sulfaneylidene)-2-(3-cyano-2,6-diisopropylphenyl)acetamide]
0.2 to 1 µM	Cc1ccc(-c2cc(C(C)C)c(CC(=O)N=S(N)(=O)c3ncc(C(C)(C)O)s3)c(C(C)C)c2)cc1C (centres unmarked) [Example 121, N-(amino(5-(2-hydroxypropan-2-yl)thiazol-2-yl)(oxo)-λ^6-sulfaneylidene)-2-(3,5-diisopropyl-3′,4′-dimethyl-[1,1′-biphenyl]-4-yl)acetamide]
0.2 to 1 µM	CC(C)c1cc(-c2ccc(Cl)c(Cl)c2)cc(C(C)C)c1CC(=O)N=S(N)(=O)c1ncc(C(C)(C)O)s1 (centres unmarked) [Example 122, N-(amino(5-(2-hydroxypropan-2-yl)thiazol-2-yl)(oxo)-λ^6-sulfaneylidene)-2-(3′,4′-dichloro-3,5-diisopropyl-[1,1′-biphenyl]-4-yl)acetamide]
0.2 to 1 µM	CC(C)c1ccc(F)c(C(C)C)c1CC(=O)N=S(N)(=O)c1ccc(C(C)(C)O)s1 (centres unmarked) [Example 125, N-(amino(5-(2-hydroxypropan-2-yl)thiophen-2-yl)(oxo)-λ^6-sulfaneylidene)-2-(3-fluoro-2,6-diisopropylphenyl)acetamide]
1 to 5 µM	CC(C)c1cc2c(c(C(C)C)c1CC(=O)N=S(N)(=O)c1ccc(CN(C)C)cc1)COC2 (centres unmarked) [Example 134, N-(amino(4-((dimethylamino)methyl)phenyl)(oxo)-λ^6-sulfaneylidene)-2-(4,6-diisopropyl-1,3-dihydroisobenzofuran-5-yl) acetamide]
0.2 to 1 µM	CC(C)c1cc(-c2ccc3c(c2)CCOC3)cc(C(C)C)c1CC(=O)N=S(N)(=O)c1sc(C(C)(C)O)nc1CO (centres unmarked) [Example 137, N-(amino(4-(hydroxymethyl)-2-(2-hydroxypropan-2-yl)thiazol-5-yl)(oxo)-λ^6-sulfaneylidene)-2-(4-(isochroman-6-yl)-2,6-diisopropylphenyl)acetamide]
0.04 to 0.2 µM	CC(C)c1cc(COC2CCCC2)cc(C(C)C)c1CC(=O)N=S(N)(=O)c1cnc(C(C)(C)O)s1 (centres unmarked) [Example 141, N-(amino(2-(2-hydroxypropan-2-yl)thiazol-5-yl)(oxo)-λ^6-sulfaneylidene)-2-(4-((cyclopentyloxy)methyl)-2,6-diisopropylphenyl)acetamide]
1 to 5 µM	CC(C)c1cc2c(c(C(C)C)c1CC(=O)N=S(N)(=O)c1cnc(C(C)(C)O)s1)CCC2 (centres unmarked) [Example 142, N-(amino(2-(2-hydroxypropan-2-yl)thiazol-5-yl)(oxo)-λ^6-sulfaneylidene)-2-(4,6-diisopropyl-2,3-dihydro-1H-inden-5-yl)acetamide]
0.2 to 1 µM	CC(C)c1ncc(F)c(C(C)C)c1CC(=O)N=S(N)(=O)c1sc(C(C)(C)O)cc1F (centres unmarked) [Example 149, N-(amino(3-fluoro-5-(2-hydroxypropan-2-yl)thiophen-2-yl)(oxo)-λ^6-sulfaneylidene)-2-(5-fluoro-2,4-diisopropylpyridin-3-yl) acetamide]
1 to 5 µM	CC(C)c1nc(C(F)(F)F)nc(C(C)C)c1CC(=O)N=S(N)(=O)c1cnc(C(C)(C)O)s1 (centres unmarked) [Example 153, N-(amino(2-(2-hydroxypropan-2-yl)thiazol-5-yl)(oxo)-λ^6-sulfaneylidene)-2-(4,6-diisopropyl-2-(trifluoromethyl)pyrimidin-5-yl)acetamide]
5 to 30 µM	CC(C)c1cnc(F)c(C(C)C)c1CC(=O)N=S(N)(=O)c1cnc(C(C)(C)O)s1 (centres unmarked) [Example 154, N-(amino(2-(2-hydroxypropan-2-yl)thiazol-5-yl)(oxo)-λ^6-sulfaneylidene)-2-(2-fluoro-3,5-diisopropylpyridin-4-yl)acetamide]
1 to 5 µM	CC(C)(O)c1ncc(S(N)(=O)=NC(=O)Cc2c3c(cc4c2CC4)CCC3)s1 (centres unmarked) [Example 222, N-(amino(2-(2-hydroxypropan-2-yl)thiazol-5-yl)(oxo)-λ^6-sulfaneylidene)-2-(2,4,5,6-tetrahydro-1H-cyclobuta[f]inden-3-yl)acetamide]
5 to 30 µM	CC(C)c1ccc(F)c(C(C)C)c1CC(=O)N=S(=O)(NC(=O)Cc1c(C(C)C)ccc(F)c1C(C)C)c1ccc(CN(C)C)nc1 (centres unmarked) [Example 225, N-(6-((dimethylamino)methyl)-N-(2-(3-fluoro-2,6-diisopropylphenyl)acetyl)pyridine-3-sulfonimidoyl)-2-(3-fluoro-2,6-diisopropylphenyl) acetamide]
1 to 5 µM	CC(C)c1cc(C#CC2CCCCC2)cc(C(C)C)c1CC(=O)N=S(N)(=O)c1cc(C(C)(C)O)n(-c2ccccc2)n1 (centres unmarked) [Example 226, N-(amino(5-(2-hydroxypropan-2-yl)-1-phenyl-1H-pyrazol-3-yl)(oxo)-λ^6-sulfaneylidene)-2-(4-(cyclohexylethynyl)-2,6-diisopropylphenyl)acetamide]
1 to 5 µM	CC(C)c1cc(C(=O)CC2CCCCC2)cc(C(C)C)c1CC(=O)N=S(N)(=O)c1cc(C(C)(C)O)n(-c2ccccc2)n1 (centres unmarked) [Example 227]
5 to 30 µM	CC(C)c1cc(CCC2CCCCC2)cc(C(C)C)c1CC(=O)N=S(N)(=O)c1cc(C(C)(C)O)n(-c2ccccc2)n1 (centres unmarked) [Example 228, N-(amino(5-(2-hydroxypropan-2-yl)-1-phenyl-1H-pyrazol-3-yl)(oxo)-λ^6-sulfaneylidene)-2-(4-(2-cyclohexylethyl)-2,6-diisopropylphenyl)acetamide]
1 to 5 µM	CC(C)c1cc(C#CC2CCOCC2)cc(C(C)C)c1CC(=O)N=S(N)(=O)c1cc(C(C)(C)O)n(-c2ccccc2)n1 (centres unmarked) [Example 229, N-(amino(5-(2-hydroxypropan-2-yl)-1-phenyl-1H-pyrazol-3-yl)(oxo)-λ^6-sulfaneylidene)-2-(2,6-diisopropyl-4-((tetrahydro-2H-pyran-4-yl)ethynyl)phenyl)acetamide]
1 to 5 µM	CC(C)c1cc(C(F)F)cc(C(C)C)c1CC(=O)N=S(N)(=O)c1ccc(CN(C)C)nc1 (centres unmarked) [Example 230, N-(amino(6-((dimethylamino)methyl)pyridin-3-yl)(oxo)-λ^6-sulfaneylidene)-2-(4-(difluoromethyl)-2,6-diisopropylphenyl)acetamide]
0.2 to 1 µM	CC(C)c1cc2c(c(C(C)C)c1CC(=O)N=[S@@](N)(=O)c1cnc(C(C)(C)O)s1)OC(F)(F)O2 [Example 231]
5 to 30 µM	CC(C)c1cc2c(cnn2C)c(C(C)C)c1CC(=O)N=[S@@](N)(=O)c1cnc(C(C)(C)O)s1 [Example 232, (R)-N-(amino(2-(2-hydroxypropan-2-yl)thiazol-5-yl)(oxo)-λ^6-sulfaneylidene)-2-(4,6-diisopropyl-1-methyl-1H-indazol-5-yl)acetamide]
5 to 30 µM	Cc1c2c(cc(C3CC3)c1CC(=O)N=[S@@](N)(=O)c1cnc(C(C)(C)O)s1)CCC2 [Example 233, (R)-N-(amino(2-(2-hydroxypropan-2-yl)thiazol-5-yl)(oxo)-λ^6-sulfaneylidene)-2-(6-cyclopropyl-4-methyl-2,3-dihydro-1H-inden-5-yl)acetamide]
1 to 5 µM	COCc1cc(C(C)C)c(CC(=O)N=S(N)(=O)c2ncc(C(C)(C)O)s2)c(C(C)C)n1 (centres unmarked) [Example 236, N-(amino(5-(2-hydroxypropan-2-yl)thiazol-2-yl)(oxo)-λ^6-sulfaneylidene)-2-(2,4-diisopropyl-6-(methoxymethyl)pyridin-3-yl)acetamide]
5 to 30 µM	CC(C)c1cc(C#N)nc(C(C)C)c1CC(=O)NS(=N)(=O)c1sc(C(C)(C)O)nc1CO (centres unmarked) [Example 237, 2-(6-cyano-2,4-diisopropylpyridin-3-yl)-N-(4-(hydroxymethyl)-2-(2-hydroxypropan-2-yl)thiazole-5-sulfonimidoyl)acetamide]
1 to 5 µM	CC(C)c1cc(C#N)c(F)c(C(C)C)c1CC(=O)N=S(N)(=O)c1cnc(C(C)(O)CO)s1 (centres unmarked) [Example 238, N-(amino(2-(1,2-dihydroxypropan-2-yl)thiazol-5-yl)(oxo)-λ^6-sulfaneylidene)-2-(4-cyano-3-fluoro-2,6-diisopropylphenyl) acetamide]
1 to 5 µM	CC(C)c1cc(C#N)c(F)c(C(C)C)c1CC(=O)N=S(N)(=O)c1cc(C(C)(C)O)n(-c2ccccc2)n1 (centres unmarked) [Example 239, N-(amino(5-(2-hydroxypropan-2-yl)-1-phenyl-1H-pyrazol-3-yl)(oxo)-λ^6-sulfaneylidene)-2-(4-cyano-3-fluoro-2,6-diisopropylphenyl)acetamide]

same assay, conditions: Table B1; 2% fetal bovine serum; class symbols; read-out: hTHP-1 IC50 (Average IC50 of compounds in hTHP-1 assay)

IC50	SMILES
1 to 5 µM	CC(C)(O)c1ncc(S(N)(=O)=NC(=O)Cc2c3c(cc4c2CC4)CCC3)s1 [Example 223, (S)- and (R)—N-(amino(2-(2-hydroxypropan-2-yl)thiazol-5-yl)(oxo)-λ^6-sulfaneylidene)-2-(2,4,5,6-tetrahydro-1H-cyclobuta[f]inden-3-yl)acetamide]
